Data from US10105357B2, “Indication of antibiotic drugs for preparation of cancer inhibition pharmaceutical composition” (LAUNX BIOMEDICAL CO., LTD., priority 2014, dated 2018).
Where a name gives a salt, the structure may show the parent alone. Read-outs that look alike come from different tables or passages of the source.

What was measured:
[1] = system: PC3 (p53−) (Prostate Adenocarcinoma); test: Cell viability analysis, prostate cancer PC3; format: cell-based, human; conditions: Homo sapiens, 72 h
[2] = system: HeLa (Cervix Adenocarcinoma); test: Cell viability analysis, cervical cancer HeLa; format: cell-based, human; conditions: Homo sapiens, HeLa, 72 h
[3] = system: HCT116 (p53+) (Colorectal Carcinoma); test: cells; conditions: Homo sapiens, HCT-116, 72 h, read-out: cell viability (survival rate), HCT116
[4] = system: A375 (Amelanotic Melanoma); test: Cell viability analysis, skin cancer A375; format: cell-based, human; conditions: Homo sapiens, A-375, 72 h
[5] = system: HepG2 (Hepatocellular Carcinoma); test: Cell viability analysis, hepatic cancer HepG2; format: cell-based, human; conditions: Homo sapiens, HepG2, 72 h
[6] = system: MKN-45 (Gastric Adenocarcinoma); test: Cell viability analysis, gastric cancer MKN-45; format: cell-based, human; conditions: Homo sapiens, MKN-45, 72 h
[7] = system: A549 (Lung Adenocarcinoma); test: Cell viability analysis, lung cancer A549; format: cell-based, human; conditions: Homo sapiens, A549, 72 h
[8] = system: LoVo (Colorectal Adenocarcinoma); test: Cell viability analysis, colon cancer LoVo; format: cell-based, human; conditions: Homo sapiens, LoVo, 72 h
[9] = system: HI650 (Lung Adenocarcinoma); test: Cell viability analysis, lung cancer HI650; format: cell-based, human; conditions: Homo sapiens, NCI-H1650, 72 h
[10] = system: TSGH-8301 (Urinary Bladder Carcinoma); test: Cell viability analysis, bladder cancer TSGH-8301; format: cell-based, human; conditions: Homo sapiens, 72 h
[11] = system: HL-60 (Acute Promyelocytic Leukemia); test: Cell viability analysis, leukemia HL-60; format: cell-based, human; conditions: Homo sapiens, HL-60, 72 h
cancer cell lines = test: Cell viability analysis (WST-1) on cancer cell lines; format: cell-based, human; conditions: drug 10 μM, 72 hours, WST-1; Table 3
[12] = system: MCF7 (Mammary Gland, Adenocarcinoma); test: Cell viability analysis, breast cancer MCF7; format: cell-based, human; conditions: Homo sapiens, MCF7, 72 h
[13] = system: AGS (Gastric Adenocarcinoma); test: Cell viability analysis, gastric cancer AGS; format: cell-based, human; conditions: Homo sapiens, 72 h
[14] = drug 10 μM, 72 hours, WST-1, OD450 nm, read-out: cell viability (survival rate), PC3
[15] = drug 10 μM, 72 hours, WST-1, OD450 nm, read-out: cell viability (survival rate), HeLa
[16] = drug 10 μM, 72 hours, WST-1, OD450 nm, read-out: cell viability (survival rate), A375
[17] = drug 10 μM, 72 hours, WST-1, OD450 nm, read-out: cell viability (survival rate), HepG2
[18] = drug 10 μM, 72 hours, WST-1, OD450 nm, read-out: cell viability (survival rate), MKN-45
[19] = drug 10 μM, 72 hours, WST-1, OD450 nm, read-out: cell viability (survival rate), A549
[20] = read-out: cell viability (survival rate), LoVo, drug 10 μM, 72 hours, WST-1, OD450 nm
[21] = drug 10 μM, 72 hours, WST-1, OD450 nm, read-out: cell viability (survival rate), H1650
[22] = drug 10 μM, 72 hours, WST-1, OD450 nm, read-out: cell viability (survival rate), TSGH
[23] = drug 10 μM, 72 hours, WST-1, OD450 nm, read-out: cell viability (survival rate), HL-60
[24] = drug 10 μM, 72 hours, WST-1, OD450 nm, read-out: cell viability (survival rate), MCF7
[25] = drug 10 μM, 72 hours, WST-1, OD450 nm, read-out: cell viability (survival rate), AGS
[26] = read-out: cell viability (survival rate), PC3, drug 10 μM, 72 hours, WST-1, OD450 nm
[27] = read-out: cell viability (survival rate), HeLa, drug 10 μM, 72 hours, WST-1, OD450 nm
[28] = read-out: cell viability (survival rate), A375, drug 10 μM, 72 hours, WST-1, OD450 nm
[29] = read-out: cell viability (survival rate), HepG2, drug 10 μM, 72 hours, WST-1, OD450 nm
[30] = read-out: cell viability (survival rate), MKN-45, drug 10 μM, 72 hours, WST-1, OD450 nm
[31] = read-out: cell viability (survival rate), A549, drug 10 μM, 72 hours, WST-1, OD450 nm
[32] = read-out: cell viability (survival rate), H1650, drug 10 μM, 72 hours, WST-1, OD450 nm
[33] = read-out: cell viability (survival rate), TSGH, drug 10 μM, 72 hours, WST-1, OD450 nm
[34] = read-out: cell viability (survival rate), HL-60, drug 10 μM, 72 hours, WST-1, OD450 nm
[35] = read-out: cell viability (survival rate), MCF7, drug 10 μM, 72 hours, WST-1, OD450 nm
[36] = read-out: cell viability (survival rate), AGS, drug 10 μM, 72 hours, WST-1, OD450 nm
[37] = read-out: cell viability (survival rate), PC3
[38] = read-out: cell viability (survival rate), HeLa
[39] = read-out: cell viability (survival rate), A375
[40] = read-out: cell viability (survival rate), MKN-45
[41] = read-out: cell viability (survival rate), A549
[42] = read-out: cell viability (survival rate), LoVo
[43] = read-out: cell viability (survival rate), H1650
[44] = read-out: cell viability (survival rate), TSGH
[45] = read-out: cell viability (survival rate), HL-60
[46] = read-out: cell viability (survival rate), MCF7
[47] = read-out: cell viability (survival rate), AGS

SMILES	viability at 10 µM [1, 14] [%]	viability at 10 µM [2, 15] [%]	viability at 10 µM [3] [%]	viability at 10 µM [4, 16] [%]	viability at 10 µM [5, 17] [%]	viability at 10 µM [6, 18] [%]	viability at 10 µM [7, 19] [%]	viability at 10 µM [8, 20] [%]	inhibition effect on different cancer cell lines (cancer cell lines)	viability at 10 µM [1, 26] [%]	viability at 10 µM [2, 27] [%]	viability at 10 µM [4, 28] [%]	viability at 10 µM [5, 29] [%]	viability at 10 µM [6, 30] [%]	viability at 10 µM [7, 31] [%]	viability at 10 µM [9, 32] [%]	viability at 10 µM [10, 33] [%]	viability at 10 µM [11, 34] [%]	viability at 10 µM [12, 35] [%]	viability at 10 µM [13, 36] [%]	further results
CN1CCN(c2cc3c(cc2F)c(=O)c(C(=O)O)cn3-c2ccc(F)cc2)CC1 [Difloxacin HCl]	77.3	130	96.7	58.5	71.2	79.4	64.5	95.7	significant inhibition effect	–	–	–	–	–	–	–	–	–	–	–	viability at 10 µM [9, 21]: 77.5%; viability at 10 µM [10, 22]: 52%; viability at 10 µM [11, 23]: 77%; viability at 10 µM [12, 24]: 52.3%; viability at 10 µM [13, 25]: 82.9%
CCc1c(Cl)c(O)c(Cl)c(O)c1C(=O)O[C@H]1[C@H](O)[C@H](OC)[C@H](OC/C2=C\C=C\C[C@H](O)/C(C)=C/[C@H](CC)[C@@H](O[C@@H]3OC(C)(C)[C@@H](OC(=O)C(C)C)[C@H](O)[C@@H]3O)/C(C)=C/C(C)=C/C[C@@H]([C@@H](C)O)OC2=O)O[C@@H]1C [Fidaxomicin]	–	–	102	–	–	–	–	89.6	significant inhibition effect	59.4	82.2	70.3	99.6	94.2	40.6	61.2	82.4	99.2	46.6	94.9	–
O=C([O-])c1ccccc1O.[Na+] [Sodium salicylate]	–	–	73.5	–	–	–	–	–	significant inhibition effect	–	–	–	–	–	–	–	–	–	–	–	viability at 10 µM [1, 37]: 87.9%; viability at 10 µM [2, 38]: 94.4%; viability at 10 µM [4, 39]: 74.9%; viability at 10 µM ([5]; read-out: cell viability (survival rate), HepG2): 84.3%; viability at 10 µM [6, 40]: 77.9%; viability at 10 µM [7, 41]: 107%; viability at 10 µM [8, 42]: 102%; viability at 10 µM [9, 43]: 90.1%; viability at 10 µM [10, 44]: 137%; viability at 10 µM [11, 45]: 94.7%; viability at 10 µM [12, 46]: 89%; viability at 10 µM [13, 47]: 82.1%
NC[C@H]1O[C@H](O[C@H]2[C@H](O)[C@@H](O[C@H]3O[C@H](CO)[C@@H](O)[C@H](N)[C@H]3O)[C@H](N)C[C@@H]2N)[C@H](N)[C@@H](O)[C@@H]1O [Bekanamycin]	76.3	95.2	73.6	55.5	85.3	74.5	58.3	96.9	significant inhibition effect	–	–	–	–	–	–	–	–	–	–	–	viability at 10 µM [9, 21]: 80.8%; viability at 10 µM [10, 22]: 76.2%; viability at 10 µM [11, 23]: 96.8%; viability at 10 µM [12, 24]: 57.5%; viability at 10 µM [13, 25]: 81.7%
CCn1nc(C(=O)O)c(=O)c2cc3c(cc21)OCO3 [Cinoxacin]	–	–	66.2	–	–	–	–	97	significant inhibition effect	87	64	68.3	69.7	98.9	74.2	67.1	71.5	109	74.9	83.2	–
CCn1cc(C(=O)O)c(=O)c2cnc(N3CCCC3)nc21 [Piromidic Acid]	–	–	89.8	–	–	–	–	95.2	significant inhibition effect	107	95.5	86.7	73.8	100	80.5	67.2	90.5	95.2	99.5	85.9	–
Cl.NCCc1ccc(O)c(O)c1 [Dopamine hydrochloride (Inotropin), Dopamine hydrochloride]	–	–	90.6	–	–	–	–	–	significant inhibition effect	–	–	–	–	–	–	–	–	–	–	–	viability at 10 µM [1, 37]: 115%; viability at 10 µM [2, 38]: 85.1%; viability at 10 µM [4, 39]: 83%; viability at 10 µM [6, 40]: 85%; viability at 10 µM [7, 41]: 102%; viability at 10 µM [8, 42]: 84.3%; viability at 10 µM [9, 43]: 76%; viability at 10 µM [10, 44]: 57.7%; viability at 10 µM [11, 45]: 91.5%; viability at 10 µM [12, 46]: 148%; viability at 10 µM [13, 47]: 74.3%
CC(C)(O/N=C(\C(=O)N[C@@H]1C(=O)N2C(C(=O)[O-])=C(C[n+]3ccccc3)CS[C@H]12)c1csc(N)n1)C(=O)O [Ceftazidime Pentahydrate]	38.5	70	89.5	87.7	93.6	94.6	26.7	72.5	significant inhibition effect	–	–	–	–	–	–	–	–	–	–	–	viability at 10 µM [9, 21]: 58.5%; viability at 10 µM [10, 22]: 78.7%; viability at 10 µM [11, 23]: 89.3%; viability at 10 µM [12, 24]: 35.5%; viability at 10 µM [13, 25]: 53.5%
CO[C@@]1(NC(=O)C(C(=O)O)c2ccc(O)cc2)C(=O)N2C(C(=O)O)=C(CSc3nnnn3C)CO[C@@H]21 (some centres unmarked) [Moxalactam Disodium]	–	–	73.9	–	–	–	–	94	significant inhibition effect	95	61.3	80.8	79.1	110	76.6	66.9	55.9	–	80.7	76.9	–
CN(C)c1ccc(O)c2c1C[C@H]1C[C@H]3[C@H](N(C)C)C(O)=C(C(N)=O)C(=O)[C@@]3(O)C(O)=C1C2=O [Minocycline HCl]	–	–	105	–	–	–	–	87.3	significant inhibition effect	53.8	–	81.6	103	95	42.5	74	60.4	68.1	49.9	87.6	–
